Like-named read-outs stand apart in the source and are kept apart here.
Legend:
[1] = tested on: prostate cancer cells (LnCap); experiment: Anti-proliferative and apoptogenic action in prostate cancer cells; type: cell-based; details: data not shown
[2] = tested on: histone H3, H3K56; experiment: Post-translational modifications on histone proteins (mass spectrometry, SILAC); type: cell-based, human; details: U937 (and other) cells, 24 h, 5 μM
Description: U937 cells were grown in RPMI medium in the presence of lysine and arginine (‘light’) or istope versions, Arg10 and Lys8 (‘heavy’). […]. As controls, cell grown in heavy medium were treated for 24 h with DMSO. Light and heavy cells were 7.5×10^6 cells harvest and mixed in 1:1 ratio (total 15×10^6 cells). The cells were washed twice with PBS and the cell pellet was stored at −80° C.
Cells were resuspended in 750 μl Triton Extraction Buffer (TEB: PBS containing 0.5% Triton X 100 (v/v), 2 mM phenylmethylsulfonyl fluoride (PMSF) and 0.02% (w/v) NaN3) and lysed on ice for 10 min with gentle stirring. The lysate was centrifuged for 10 min at 6000 rpm and the supernatant discarded. The pellet was washed with 375 μl of TEB and peletted by centrifugation as before. Pellet is resuspended in 20 μl 250 mM HCl and acid extraction of the histones was performed o/n at 4° C.
Extracted histones were cleared by centrifugation and separated on a 15% acrylamide gel and the gel was stained with Coomassie. The gel region containing the histones was sliced, reduced and alkylated in gel. Proteins were digested o/n with trypsin (Promega). Peptides were eluted from the gel with trifluoroacetic acid. […]
U937 cells were treated with UVI5008 for 24 hrs and histones were acid extracted. Proteins were digested with trypsin and the peptides were analysed using a nanoLC that is online with a FT-ICR mass spectrometer. […]

[3] = tested on: HCT-116 colon carcinoma cells xenografted in immunoincompetent mice; details: for Normalised tumour weight: mean of n = 10
[4] = tested on: p16INK4a promoter; experiment: Methylation specific PCR for the p16 gene; type: cell-based; details: 24 hrs
Description: (§1) FIG. 2: a) Methylation specific PCR for the RARβ gene after 16 and 24 hrs of treatment with the indicated compounds; b) Methylation specific PCR for the p16 gene after 24 hrs of the indicated treatments. Samples are representative of real duplicates; c) p16 expression levels in U937 cells after 24 hrs with the indicated treatments; d) DNMT enzymatic in vitro assay carried out with 1.5 and 50 μM of the indicated compounds;
DNA extraction was performed as described below. Bisulfite treatment and PCR for the determination of p16 methylation was performed as described from the suppliers (Chemicon).

[5] = tested on: breast cancer cells (ZR75.1); experiment: Anti-proliferative and apoptogenic action in breast cancer cells; type: cell-based; details: data not shown
[6] = tested on: cancer cell lines A-375, DU145 and HCT-116; experiment: Dose response curves, anti-proliferative activity on cancer cell lines; type: cell-based; details: range over A-375, DU145, HCT-116; read-out: IC50 values, anti-proliferative activity on different types of cancer cell lines
Description: HCT-116, A-375 and DU-145 cells were plated at 8000 cells per well in 96-well transparent cell culture grade plates (Corning). Plates were kept in the humidified CO2 (5%) incubator overnight so that cells get attached to the bottom. […] Viable cells cleave the MTT tetrazolium ring into a dark blue formazan reaction product, whereas dead cells remain colorless. The MTT-containing medium was gently removed and DMSO was added in each well. After shaking, the plates were read in absorbance at 540 nm. All results are expressed as the average of three wells. Percent cytotoxicity was measured of each compound and represented in terms of its IC50 values.
Anti-proliferative activity on cancer cell lines A-375, DU145 and HCT-116: […]

[7] = tested on: p16INK4a; experiment: p16 expression levels in U937 cells; type: cell-based, human; details: U937, 24 hrs
Description: as §1
For the determination of p21^WAF1/CIP1 and p16^INK4 100 μg of total protein extracts were separated on a 15% polyacrylammide gels and blotted. Western blots were shown for p21 (Transduction Laboratories, dilution 1:500), p16 (Santa Cruz) and total ERKs (Santa Cruz) were used to normalise for equal loading. For alpha-tubulin acetylation 25 μg of total protein extracts were separated on a 10% polyacrylamide gels and blotted. Western blots were shown for acetylated alpha-tubulin (Sigma, dilution 1:500) and total ERKs (Santa Cruz) or total tubulin (Sigma) were used to normalise for equal loading.

[8] = target: human recombinant SIRT2 (Homo sapiens, UniProt Q8IXJ6); experiment: SIRT activity assay, SIRT2; type: biochemical
Description: FIG. 13A: % of SIRT1 and SIRT2 activity with controls, sodium suramine, a sirtuin inhibitor, and resveratrol a SIRT1 activator, and with UVI5008 at concentrations of 50 μM and 5 μM.
The SIRT activity assay was performed using the human recombinant SIRT1 and SIRT2. SIRT1 (1 U/well) or SIRT2 (5 U/well), respectively, were incubated (37° C. for 1 h) with the SIRT1/2 substrate (corresponding to a p53 acetylated peptide) in the presence of NAD^+ and various concentrations of tested compounds (sirtuins activators or inhibitors). Activity was measured as fluorescence intensity. As internal controls, sodium suramin, a sirtuin inhibitor, and resveratrol, a SIRT1 activator, have been included. The fluorescence was measured on a fluorometric reader (Inphinite 200 TECAN) with excitation set at 360 nm and emission detection set at 460 nm

Chain of human recombinant SIRT2 (Q8IXJ6 whole entry): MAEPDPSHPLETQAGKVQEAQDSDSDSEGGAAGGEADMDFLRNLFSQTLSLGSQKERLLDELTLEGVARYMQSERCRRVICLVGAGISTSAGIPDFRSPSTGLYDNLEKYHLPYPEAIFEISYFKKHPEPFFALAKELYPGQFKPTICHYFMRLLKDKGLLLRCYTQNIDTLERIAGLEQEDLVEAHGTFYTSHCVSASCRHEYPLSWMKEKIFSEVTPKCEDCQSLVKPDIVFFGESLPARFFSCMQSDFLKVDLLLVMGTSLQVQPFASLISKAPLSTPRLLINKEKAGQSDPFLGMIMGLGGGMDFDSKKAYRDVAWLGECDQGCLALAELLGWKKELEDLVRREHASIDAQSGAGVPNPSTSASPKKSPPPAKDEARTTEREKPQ

Question: What does the source list for O=C(NCCSSCCNC(=O)C(Cc1c[nH]c2ccc(Br)cc12)=NO)C(Cc1c[nH]c2ccc(Br)cc12)=NO [UVI5008]?
Answer: anti-proliferative and apoptogenic action [1]: confirmed; post-translational modifications on histone proteins [2]: identification of a novel acetylated lysine residue in histone H3, H3K56; Percent Growth Inhibition after 22 days ([3]; 40 mg/kg i.p. every second day): 56 ± 7%; animals with signs of toxicity (accumulation of intra peritoneal fluid) ([3]; 40 mg/kg i.p. every second day): 3 animals out of 10; Normalised tumour weight ([3]; day 1, 40 mg/kg i.p. every second day): 100 ± 21.5 mg; Normalised tumour weight ([3]; day 4, 40 mg/kg i.p. every second day): 180.55 ± 43 mg; Normalised tumour weight ([3]; day 12, 40 mg/kg i.p. every second day): 548.73 ± 109.8 mg; Normalised tumour weight ([3]; day 17, 40 mg/kg i.p. every second day): 915.28 ± 196.8 mg; Normalised tumour weight ([3]; day 22, 40 mg/kg i.p. every second day): 1684.79 ± 262.1 mg; anti tumoral activity compared with the reference compounds ([3]; each compound at its MTD): greater anti tumoral activity with respect to SAHA and MS-275; unmethylated p16INK4a promoter DNA (MSP) [4]: increased; anti-proliferative and apoptogenic action [5]: confirmed; IC50 [6]: 1.5 to 3 µM; p16INK4a gene expression [7]: de-silenced; IC50 [8]: 7.8 µM
